The test system of one assay is slow reacting substance of anaphylaxis (SRS-A). The assay can be described thus: Inhibition of SRS-A induced contraction of guinea pig ileum. As to conditions: Cavia porcellus, 0.25 h; compound concentration 5 × 10^-5 M; partially purified SRS-A from guinea pig lung at 40 μg/ml; 15 minute incubation; read-out: Percent Antagonism. Format: cell-based. As for the experimental part:
The SRS-A antagonist activity of the compounds of this invention is measured by the ability of the active medicament to inhibit SRS-A induced contraction of guinea pig ileum. In this test system, sections of ileum are resected from guinea pigs and placed in 5 ml. tissue baths containing a modified Tyrode's solution. One end of the tissue is fixed to a glass tissue holder, the other is connected to a force-displacement transducer and the tissue is placed under a tension of 500 mg. Isometric tissue contractions are recorded on a six channel polygraph. Baths are constantly aerated with 95% O2 -5% CO2. After a 20 minute stabilization period a concentration of the appropriate agonist which provides a contraction height of 60-80% of the maximum obtainable to that agonist (as determined from full sequential concentration--response curves in separate experiments) is added to the tissue bath and the response recorded. The procedure is repeated until reproducible responses are obtained. For most agonists, two applications in rapid succession, followed 15 minutes later by a third, is sufficient to establish reproducibility. Experimental tissues are incubated with the selected concentration of the test compounds for 15 minutes. Experimental and control tissues are subjected to 5 bath changes during the incubation interval. Changes in bath fluid during the incubation period are helpful in insuring the reproducibility of tissue responses to the agonist. The same concentration of the agonist is reapplied in the presence of the test compound and the response registered and compared with controls. Percent inhibition produced by the test compound is calculated by subtracting the mean percentage change in control tissue from the mean percentage change in tissues exposed to the test compound. Additional compounds are then evaluated as long as the tissue remains reproducibly responsive to the agonist. Six tissues obtained from 6 animals are used simultaneously--3 controls and 3 experimental.
The compounds of this invention tested at concentrations of from 5×10^-5 to 5×10^-6 produce marked antagonism of partially purified slow reacting substance of anaphylaxis obtained from guinea pig lung. The agonist is employed at a concentration of 40 μg/ml. Representative of this effect, tabulated below are a number of the claimed compounds and percent antagonism of SRS-A at various compound concentrations.
`O=S(=O)(NS(=O)(=O)N1CCc2cc(Cl)ccc2C1)N1CCc2cc(Cl)ccc2C1` [H 6-Cl H H]: the inhibition at 50 µM was 84.2%.

The assay is the same for the next values; noted with them: Cavia porcellus, 0.25 h; compound concentration 5 × 10^-6 M; partially purified SRS-A from guinea pig lung at 40 μg/ml; 15 minute incubation; read-out: Percent Antagonism.
Turning to `O=S(=O)(NS(=O)(=O)N1CCc2ccc(C(F)(F)F)c(C(F)(F)F)c2C1)N1CCc2ccc(C(F)(F)F)c(C(F)(F)F)c2C1` [7-CF3 8-CF3 H H], the inhibition at 5 µM stood at 26.8%.

`Cc1ccc2c(c1Cl)CN(S(=O)(=O)NS(=O)(=O)N1CCc3ccc(C)c(Cl)c3C1)CC2` [7-CH3 8-Cl H H]: the inhibition at 5 µM was 49.9%. Still for that read-out and setting: to `O=S(=O)(NS(=O)(=O)N1CCc2cc(Cl)c(Cl)cc2C1)N1CCc2cc(Cl)c(Cl)cc2C1` [7-Cl 6-Cl H H] belongs 56.3%; to `CC(C)C1c2c(ccc(Cl)c2Cl)CCN1S(=O)(=O)NS(=O)(=O)N1CCc2ccc(Cl)c(Cl)c2C1C(C)C` (centres unmarked) [7-Cl 8-Cl CH(CH3)2 H], 63%; to `CC1Cc2ccc(Cl)c(Cl)c2CN1S(=O)(=O)NS(=O)(=O)N1Cc2c(ccc(Cl)c2Cl)CC1C` (centres unmarked) [7-Cl 8-Cl H CH3], 52.5%. Turning to `O=S(=O)(NS(=O)(=O)N1CCc2ccc(Cl)c(Cl)c2C1)N1CCc2ccc(Cl)c(Cl)c2C1` [7-Cl 8-Cl H H, N,N'-bis(7,8-dichloro-1,2,3,4,-tetrahydroisoquinolyl)disulfonylimide], the inhibition at 5 µM turned out to be 42%. As for `O=S(=O)(NS(=O)(=O)N1CCc2ccc(Cl)c(Cl)c2C1C1CC1)N1CCc2ccc(Cl)c(Cl)c2C1C1CC1` (centres unmarked) [7-Cl 8-Cl [drawing 3] H], the inhibition at 5 µM stood at 60%. `O=S(=O)(NS(=O)(=O)N1CCc2ccc(Cl)c(SC(F)(F)C(F)F)c2C1)N1CCc2ccc(Cl)c(SC(F)(F)C(F)F)c2C1` [7-Cl 8-SCF2 CF2 H H H]: the inhibition at 5 µM amounted to 36.2%. On to `O=S(=O)(NS(=O)(=O)N1CCc2c(Br)ccc(Br)c2C1)N1CCc2c(Br)ccc(Br)c2C1` [8-Br 5-Br H H], for which the inhibition at 5 µM turned out to be 22.9%. Regarding `O=S(=O)(NS(=O)(=O)N1CCc2c(Br)cccc2C1)N1CCc2c(Br)cccc2C1` [H 5-Br H H], the inhibition at 5 µM was 45.2%.

For the origin of these results see patent US4317826A, “N,N'-Bis[substituted-1,2,3,4 tetrahydroisoquinolyl]disulfonylimides and antiallergic compositions and method of use” (SmithKline Corporation, priority 1980, dated 1982).
